Molecules are shown by their SMILES.

For assay [1], the system named is STAT1 (phosphorylated at Tyr701) in NCI-H1373 cells. Description: Phospho-STAT1 (Tyr701) LANCE Ultra TR-FRET Detection Assay. The following applies: Homo sapiens, 48 hours, induction of pSTAT1, normalized to 10 uM positive control and DMSO, 4-parameter fit, read-out: NH1373 pSTAT1 EC50. The format is cell-based. As to the method:
Phospho-STAT1 (Tyr701 LANCE Ultra TR-FRET Detection Assay
LANCE Ultra phospho-STAT1 (Tyr701) kits available from Perkin Elmer are designed for the detection of phosphorylated STAT1 in cell lysates using a simple, homogeneous LANCE Ultra sandwich assay (Cat. #TRF4028M). This assay is intended for assessing compound induction of endogenous levels of cellular STAT1 (phosphorylated at Tyr701) in NCI-H1373 cells. The NCI-H1373 cells are cultured in RPMI 1640 media containing 10% heat inactivated FBS, GlutaMAX, 1% Penicillin-Streptomycin. An Echo acoustic liquid handler is used to transfer 60 nanoliters of compound dilutions using the Echo Qualified, 384-well polypropylene microplate clear flat bottom source plates into a Greiner (#781080) cell culture microplate. NCI-H1373 cells are seeded into these compound-spotted culture plates at 30,000 cells/well in a 60 uL volume in growth media. The plates are incubated in a 5% CO2 humidified incubator at 37° C. for 48 hours. […] Briefly, 20 μL of supplemented lysis buffer is added to each well and allowed to shake for 1 hour at 400 rpm. Next, 5 ul of remixed antibody solutions (vol/vol) prepared in detection buffer are added to each well and allowed to incubate at room temperature overnight. After spinning the plate down at 300 rpm for […], the plate is read on an EnVision plate reader set up for Eu3+ Cryptate and fluorescence emission is measured at two different wavelengths (665 nm and 620 nm).

The next assay has as its target T1, PARP7 (Homo sapiens, UniProt Q7Z3E1).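 Further: MSD light signal quantifying PARP7 captured by a plate-immobilized probe, read after 1.5 h equilibration plus 1.5 h with SULFO-TAG anti-GST antibody at room temperature.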
T1 sequence (Q7Z3E1 1-657): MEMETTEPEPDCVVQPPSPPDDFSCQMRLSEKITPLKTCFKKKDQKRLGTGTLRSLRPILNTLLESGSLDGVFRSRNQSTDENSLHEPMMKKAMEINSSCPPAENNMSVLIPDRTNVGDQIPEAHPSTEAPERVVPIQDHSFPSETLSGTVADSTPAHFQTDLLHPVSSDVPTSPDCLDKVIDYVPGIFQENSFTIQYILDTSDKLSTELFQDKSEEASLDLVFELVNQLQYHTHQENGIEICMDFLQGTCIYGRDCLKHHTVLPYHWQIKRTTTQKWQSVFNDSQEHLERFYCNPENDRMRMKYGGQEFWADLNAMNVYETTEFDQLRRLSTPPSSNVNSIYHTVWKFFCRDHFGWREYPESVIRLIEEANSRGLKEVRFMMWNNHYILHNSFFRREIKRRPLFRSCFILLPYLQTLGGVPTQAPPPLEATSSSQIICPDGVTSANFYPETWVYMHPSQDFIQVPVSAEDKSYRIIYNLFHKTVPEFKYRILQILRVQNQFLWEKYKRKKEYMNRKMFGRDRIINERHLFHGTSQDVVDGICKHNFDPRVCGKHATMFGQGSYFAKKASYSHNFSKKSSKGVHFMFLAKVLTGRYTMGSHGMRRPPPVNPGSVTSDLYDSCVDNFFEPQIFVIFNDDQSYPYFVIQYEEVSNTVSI
The experiment in a line: biochemical.

Experimental for PARP7: Probe Displacement Assay for PARP7 Displacement of a biotinylated probe (RBN011147; Wigle et al., Cell Chemical Biology, 2020, pp. 877-887) from the PARP7 NAD+-binding site was measured in vitro using a Mesoscale Discovery electrochemiluminescent assay. […] Next, 10 μl of 10 nM PARP7 protein incubated for 1 hour at room temperature with a dose response curve of each test compound in a Greiner LDV polypropylene plate (#781201) is added to the MSD plate containing the immobilized probe. The interaction is allowed to reach equilibrium for 1.5 hours, and then 10 ul of SULFO-TAG labeled anti-GST antibody (Cat #R32AA-1) is added to each well and allowed to incubate for an additional 1.5 hours at room temperature. Finally, 10 μl of MSD read buffer T (4×, Cat. #R92C-1) is added to each well using a Bravo liquid handler to prevent air bubbles in the wells, and the plates are subsequently read in an MSD instrument. Light intensity is then measured to quantify the amount of PARP7 bound to the immobilized probe on the plate.

For `O=C(OCCNc1cc(C(F)(F)F)c(=O)[nH]n1)N1CCN(c2ncc(C(F)(F)F)cn2)CC1` [Example 20, 2-((6-oxo-5-(trifluoromethyl)-1,6-dihydropyridazin-3-yl)amino)ethyl4-(5-(trifluoromethyl)pyrimidin-2-yl)piperazine-1-carboxylate], the 50% effective concentration (EC50) in assay [1] was no less than 10 µM. Further, on PARP7, the IC50 amounted to 0.00176 µM.

For `O=c1[nH]nc(NCCCS(=O)(=O)N2CCN(c3ncc(C(F)(F)F)cn3)CC2)cc1C(F)(F)F` [Example 21, 4-(trifluoromethyl)-6-((3-((4-(5-(trifluoromethyl)pyrimidin-2-yl)piperazin-1-yl)sulfonyl)propyl)amino)pyridazin-3(2H)-one], the EC50 in assay [1] is no less than 10 µM. The molecule further returned an IC50 at PARP7 of 0.0186 µM.

With `O=C([C@@H]1C[C@H]1CNc1cc(C(F)(F)F)c(=O)[nH]n1)N1CCN(c2ncc(C(F)(F)F)cn2)CC1` [Example 22, 4-(trifluoromethyl)-6-((((1R,2R)-2-(4-(5-(trifluoromethyl)pyrimidin-2-yl)piperazine-1-carbonyl)cyclopropyl)methyl)amino)pyridazin-3(2H)-one], the EC50 in assay [1] was no less than 10 µM. Further, on PARP7, the IC50 worked out at 0.00257 µM.

With `O=C(CCCCNc1cc(C(F)(F)F)c(=O)[nH]n1)N1CCN(c2ncc(C(F)(F)F)cn2)CC1` [Example 23, 6-((5-oxo-5-(4-(5-(trifluoromethyl)pyrimidin-2-yl)piperazin-1-yl)pentyl)amino)-4-(trifluoromethyl)pyridazin-3(2H)-one], the EC50 in assay [1] came out at 0.532 µM. The same molecule returned an IC50 on PARP7 of 0.000521 µM.

Take `O=C([C@@H](O)CCNc1cc(C(F)(F)F)c(=O)[nH]n1)N1CCN(c2ncc(C(F)(F)F)cn2)CC1` [Example 25, (S)-6-((3-hydroxy-4-oxo-4-(4-(5-(trifluoromethyl)pyrimidin-2-yl)piperazin-1-yl)butyl)amino)-4-(trifluoromethyl)pyridazin-3(2H)-one]: the EC50 in assay [1] came to 0.0213 µM. At PARP7, this molecule showed an IC50 of 0.000141 µM.

Regarding `O=C([C@H](O)CCNc1cc(C(F)(F)F)c(=O)[nH]n1)N1CCN(c2ncc(C(F)(F)F)cn2)CC1` [Example 26, (R)-6-((3-hydroxy-4-oxo-4-(4-(5-(trifluoromethyl)pyrimidin-2-yl)piperazin-1-yl)butyl)amino)-4-(trifluoromethyl)pyridazin-3(2H)-one], in assay [1], the EC50 came out at 0.901 µM. This molecule showed an IC50 against PARP7 of 0.0016 µM.

As for `O=C(CC[C@@H]1CCCN1c1cc(C(F)(F)F)c(=O)[nH]n1)N1CCN(c2ncc(C(F)(F)F)cn2)CC1` [Example 27, (S)-6-(2-(3-oxo-3-(4-(5-(trifluoromethyl)pyrimidin-2-yl)piperazin-1-yl)propyl)pyrrolidin-1-yl)-4-(trifluoromethyl)pyridazin-3(2H)-one], the EC50 in assay [1] was 0.00931 µM. This molecule also registered an IC50 at PARP7 of 0.000212 µM.

As for `O=C([C@@H]1CCCCN1c1cc(C(F)(F)F)c(=O)[nH]n1)N1CCN(c2ncc(C(F)(F)F)cn2)CC1` [Example 28, (S)-4-(trifluoromethyl)-6-(2-(4-(5-(trifluoromethyl)pyrimidin-2-yl)piperazine-1-carbonyl)piperidin-1-yl)pyridazin-3(2H)-one], in assay [1], the EC50 stood at 0.264 µM. At PARP7, half-maximal inhibition (IC50) was put at 0.000879 µM.

With `CN(c1cccc(C(=O)N2CCN(c3ncc(C(F)(F)F)cn3)CC2)c1)c1cc(C(F)(F)F)c(=O)[nH]n1` [Example 29, 6-(methyl(3-(4-(5-(trifluoromethyl)pyrimidin-2-yl)piperazine-1-carbonyl)phenyl)amino)-4-(trifluoromethyl)pyridazin-3(2H)-one], the EC50 in assay [1] is no less than 10 µM. The molecule further displayed an IC50 against PARP7 of 0.0306 µM.

As for `O=C(C[C@@H]1CCCCN1c1cc(C(F)(F)F)c(=O)[nH]n1)N1CCN(c2ncc(C(F)(F)F)cn2)CC1` [Example 30, (S)-6-(2-(2-oxo-2-(4-(5-(trifluoromethyl)pyrimidin-2-yl)piperazin-1-yl)ethyl)piperidin-1-yl)-4-(trifluoromethyl)pyridazin-3(2H)-one], in assay [1], the EC50 came to 0.779 µM. The molecule further returned an IC50 on PARP7 of 0.00232 µM.

Consider `O=C(CC[C@@H]1CCCCN1c1cc(C(F)(F)F)c(=O)[nH]n1)N1CCN(c2ncc(C(F)(F)F)cn2)CC1` [Example 31, (S)-6-(2-(3-oxo-3-(4-(5-(trifluoromethyl)pyrimidin-2-yl)piperazin-1-yl)propyl)piperidin-1-yl)-4-(trifluoromethyl)pyridazin-3(2H)-one], for which the EC50 in assay [1] was found to be 0.172 µM. Further, at PARP7, the IC50 is 0.000671 µM.

Consider `CN(CCCC(=O)N1CCN(c2ncc(C(F)(F)F)cn2)CC1)c1cc(C(F)(F)F)c(=O)[nH]n1` [Example 32, 6-(methyl(4-oxo-4-(4-(5-(trifluoromethyl)pyrimidin-2-yl)piperazin-1-yl)butyl)amino)-4-(trifluoromethyl)pyridazin-3(2H)-one], for which the EC50 in assay [1] was 0.0756 µM. This molecule also came in with an IC50 against PARP7 of 0.000233 µM.

For the molecule `O=C(CC[C@H]1CCCCN1c1cc(C(F)(F)F)c(=O)[nH]n1)N1CCN(c2ncc(C(F)(F)F)cn2)CC1` [Example 33, (R)-6-(2-(3-oxo-3-(4-(5-(trifluoromethyl)pyrimidin-2-yl)piperazin-1-yl)propyl)piperidin-1-yl)-4-(trifluoromethyl)pyridazin-3(2H)-one], the EC50 in assay [1] turned out to be 1.22 µM. In addition, inhibition against PARP7 was half-maximal at 0.00292 µM (IC50).

With `O=C(C[C@H]1CCCCN1c1cc(C(F)(F)F)c(=O)[nH]n1)N1CCN(c2ncc(C(F)(F)F)cn2)CC1` [Example 34, (R)-6-(2-(2-oxo-2-(4-(5-(trifluoromethyl)pyrimidin-2-yl)piperazin-1-yl)ethyl)piperidin-1-yl)-4-(trifluoromethyl)pyridazin-3(2H)-one], the EC50 in assay [1] was determined as 1.69 µM. At PARP7, this molecule displayed an IC50 of 0.00445 µM.

In the case of `CCN(CCCC(=O)N1CCN(c2ncc(C(F)(F)F)cn2)CC1)c1cc(C(F)(F)F)c(=O)[nH]n1` [Example 36, 6-(ethyl(4-oxo-4-(4-(5-(trifluoromethyl)pyrimidin-2-yl)piperazin-1-yl)butyl)amino)-4-(trifluoromethyl)pyridazin-3(2H)-one], the EC50 in assay [1] was found to be 0.0516 µM. In addition, at PARP7, the concentration for half-maximal inhibition (IC50) is 0.000179 µM.

With `CCCN(CCCC(=O)N1CCN(c2ncc(C(F)(F)F)cn2)CC1)c1cc(C(F)(F)F)c(=O)[nH]n1` [Example 37, 6-((4-oxo-4-(4-(5-(trifluoromethyl)pyrimidin-2-yl)piperazin-1-yl)butyl)(propyl)amino)-4-(trifluoromethyl)pyridazin-3(2H)-one], the EC50 in assay [1] came out at 0.134 µM. Besides, the midpoint of inhibition against PARP7, the IC50, lay at 0.00028 µM.

On to `O=C(N1CCN(c2ncc(C(F)(F)F)cn2)CC1)N1CCC[C@@H](Nc2cc(C(F)(F)F)c(=O)[nH]n2)C1` [Example 38, (R)-4-(trifluoromethyl)-6-((1-(4-(5-(trifluoromethyl)pyrimidin-2-yl)piperazine-1-carbonyl)piperidin-3-yl)amino)pyridazin-3(2H)-one], for which the 50% effective concentration (EC50) in assay [1] was found to be 1.87 µM. The molecule also came in with an IC50 against PARP7 of 0.00271 µM.

Regarding `O=C(N1CCN(c2ncc(C(F)(F)F)cn2)CC1)N1CCC[C@H](Nc2cc(C(F)(F)F)c(=O)[nH]n2)C1` [Example 39, (S)-4-(trifluoromethyl)-6-((1-(4-(5-(trifluoromethyl)pyrimidin-2-yl)piperazine-1-carbonyl)piperidin-3-yl)amino)pyridazin-3(2H)-one], in assay [1], the EC50 turned out to be 1.03 µM. In addition, inhibition at PARP7 was half-maximal at 0.000719 µM (IC50).

The EC50 is the concentration that produces a half-maximal response. By IC50 is commonly meant the concentration that inhibits the measured activity by half. Low readings indicate higher potency, high ones lower potency.

For the origin of these results see US20230183216A1, “PYRIDIZIN-3(2H)-ONE DERIVATIVES” (Gilead Sciences, Inc., priority 2021, published 2023).
